According to patent publication US20220061324A1, “PESTICIDALLY ACTIVE HETEROCYCLIC DERIVATIVES WITH SULFUR CONTAINING SUBSTITUENTS” (SYNGENTA CROP PROTECTION AG, priority 2018, published 2022):
Like-named read-outs stand apart in the source and are kept apart here.

Experiments:
Type in all cases: in vivo
[1] = test system: Myzus persicae (Green Peach Aphid); experiment: Activity against Myzus persicae (green peach aphid), feeding/contact activity; conditions: 144 h
Protocol: Example B4: Activity Against Myzus persicae (Green Peach Aphid) Feeding/Contact Activity
Sunflower leaf discs were placed onto agar in a 24-well microtiter plate and sprayed with aqueous test solutions prepared from 10,000 ppm DMSO stock solutions. After drying, the leaf discs were infested with an aphid population of mixed ages. The samples were assessed for mortality 6 days after infestation.

[2] = test system: Diabrotica balteata (Corn Root Worm); experiment: Activity against Diabrotica balteata (corn root worm), maize sprouts sprayed; conditions: 96 h, read-out: effect in at least one of the two categories (mortality or growth inhibition); for percent effect (mortality or growth inhibition) at 200 ppm: application rate 200 ppm, L2 larvae, 4 days after infestation
Protocol: Example B1: Activity Against Diabrotica balteata (Corn Root Worm)
Maize sprouts placed onto an agar layer in 24-well microtiter plates were treated with aqueous test solutions prepared from 10,000 ppm DMSO stock solutions by spraying. After drying, the plates were infested with L2 larvae (6 to 10 per well). The samples were assessed for mortality and growth inhibition in comparison to untreated samples 4 days after infestation.

[3] = test system: Spodoptera littoralis (Egyptian Cotton Leaf Worm); experiment: Activity against Spodoptera littoralis (Egyptian cotton leaf worm), cotton leaf discs; conditions: foliar, 72 h, read-out: control (mortality, anti-feedant effect or growth inhibition)
Protocol: Example B5: Activity Against Spodoptera littoralis (Egyptian Cotton Leaf Worm)
Cotton leaf discs were placed onto agar in 24-well microtiter plates and sprayed with aqueous test solutions prepared from 10,000 ppm DMSO stock solutions. After drying the leaf discs were infested with five L1 larvae. The samples were assessed for mortality, anti-feeding effect, and growth inhibition in comparison to untreated samples 3 days after infestation. Control of Spodoptera littoralis by a test sample is given when at least one of the categories mortality, anti-feedant effect, and growth inhibition is higher than the untreated sample.

[4] = test system: Plutella xylostella (Diamond Back Moth); experiment: Activity against Plutella xylostella (diamond back moth), artificial diet; conditions: 192 h, read-out: effect in at least one of the two categories (mortality or growth inhibition); for percent effect (mortality or growth inhibition) at 200 ppm: application rate 200 ppm, eggs, 8 days after infestation
Protocol: Example B3: Activity Against Plutella xylostella (Diamond Back Moth)
24-well microtiter plates with artificial diet were treated with aqueous test solutions prepared from 10,000 ppm DMSO stock solutions by pipetting. After drying, Plutella eggs were pipetted through a plastic stencil onto a gel blotting paper and the plate was closed with it. The samples were assessed for mortality and growth inhibition in comparison to untreated samples 8 days after infestation.

[5] = application rate 200 ppm, feeding/contact, mixed ages, 6 days after infestation, read-out: mortality
[6] = application rate 200 ppm, L1 larvae, 3 days after infestation

SMILES | mortality at 200 ppm [1] | percent control (mortality or growth inhibition) at 200 ppm [2] | percent control (mortality, anti-feedant effect or growth inhibition) at 200 ppm [3] | percent control (mortality or growth inhibition) at 200 ppm [4] | mortality at 200 ppm [1, 5] | percent effect (mortality or growth inhibition) at 200 ppm [2] | percent control (mortality, anti-feedant effect or growth inhibition) at 200 ppm [3, 6] | percent effect (mortality or growth inhibition) at 200 ppm [4]
CCS(=O)(=O)c1cccnc1-c1ncc2c(OCC(F)(F)C(F)F)nccn12 [Compound P6, 3-(3-ethylsulfonyl-2-pyridyl)-8-(2,2,3,3-tetrafluoropropoxy)imi-dazo[1,5-a]pyrazine] | ≥ 80% | ≥ 80% | ≥ 80% | ≥ 80% |  |  |  | 
CCSc1cccnc1-c1ncc2c(OCC(F)(F)C(F)F)nccn12 [Compound P5] | ≥ 80% | ≥ 80% | ≥ 80% | ≥ 80% |  |  |  | 
CCS(=O)(=O)c1ccc(N(C)C(=O)NC)nc1-c1ncc2c(OCC(F)(F)C(F)(F)F)nccn12 [Compound P14, 1-[5-ethylsulfonyl-6-[8-(2,2,3,3,3-penta-fluoropropoxy)imidazo [1,5-a]pyrazin-3-yl]-2-pyridyl]-1,3-dimethyl-urea] |  |  |  |  | ≥ 80% | ≥ 80% | ≥ 80% | ≥ 80%
CCS(=O)(=O)c1cc(Br)cnc1-c1ncc2c(OCC(F)(F)C(F)(F)F)nccn12 [Compound P4, 3-(5-bromo-3-ethylsulfonyl-2-pyridyl)-8-(2,2,3,3,3-pentafluoropropoxy)imi-dazo[1,5-a]pyrazine] | ≥ 80% | ≥ 80% | ≥ 80% | ≥ 80% |  |  |  | 
CCSc1cc(C2CC2)cnc1-c1ncc2c(OCC(F)(F)C(F)(F)F)nccn12 [Compound P22, 3-(5-cyclopropyl-3-ethylsulfanyl-2-pyridyl)-8-(2,2,3,3,3-penta-fluoropropoxy)imidazo [1,5-a]pyrazine] |  |  |  |  |  | ≥ 80% | ≥ 80% | ≥ 80%
CCS(=O)(=O)c1cc(C2CC2)cnc1-c1ncc2c(OCC(F)(F)C(F)(F)F)cccn12 [Compound P40, 3-(5-cyclopropyl-3-ethylsulfonyl-2-pyridyl)-8-(2,2,3,3,3-penta-fluoropropoxy)imidazo [1,5-a]pyridine] |  |  |  |  | ≥ 80% | ≥ 80% |  | ≥ 80%
CCS(=O)(=O)c1ccc(N(C)C(=O)C2CC2)nc1-c1ncc2c(OCC(F)(F)C(F)(F)F)cccn12 [Compound P38, N-[5-ethylsulfonyl-6-[8-(2,2,3,3,3-penta-fluoropropoxy)imidazo [1,5-a]pyridin-3-yl]-2-pyridyl]-N-methyl-cyclopropanecarboxamide] |  |  |  |  |  | ≥ 80% | ≥ 80% | ≥ 80%
CCS(=O)(=O)c1cc(Br)cnc1-c1ncc2c(OCC(F)(F)C(F)(F)F)cccn12 [Compound P43, 3-(5-bromo-3-ethylsulfonyl-2-pyridyl)-8-(2,2,3,3,3-pentafluoropropoxy)imi-dazo[1,5-a]pyridine] |  | ≥ 80% |  | ≥ 80% |  |  |  | 
CCSc1cc(C2CC2)cnc1-c1ncc2c(OCC(F)(F)C(F)(F)F)cccn12 [Compound P42, 3-(5-cyclopropyl-3-ethylsulfanyl-2-pyridyl)-8-(2,2,3,3,3-penta-fluoropropoxy)imidazo [1,5-a]pyridine] |  |  |  |  |  | ≥ 80% |  | ≥ 80%
CCS(=O)(=O)c1ccc(-n2cncn2)nc1-c1ncc2c(OCC(F)(F)C(F)(F)F)cccn12 [Compound P33, 3-[3-ethylsulfonyl-6-(1,2,4-triazol-1-yl)-2-pyridyl]-8-(2,2,3,3,3-pentafluoropropoxy)imi dazo[1,5-a]pyri-dine] |  | ≥ 80% | ≥ 80% | ≥ 80% |  |  |  | 
CCSc1cc(C(C)(C)C#N)cnc1-c1ncc2c(OCC(F)(F)C(F)(F)F)cccn12 [Compound P46, 2-[5-ethylsulfanyl-6-[8-(2,2,3,3,3-penta-fluoropropoxy)imidazo [1,5-a]pyridin-3-yl]-3-pyridyl]-2-methyl-propanenitrile] |  |  |  |  |  |  |  | ≥ 80%
CCSc1cc(Oc2ccccn2)cnc1-c1ncc2c(OCC(F)(F)C(F)(F)F)nccn12 [Compound P20, 3-[3-ethylsulfanyl-5-(2-pyridyloxy)-2-pyridyl]-8-(2,2,3,3,3-penta-fluoropropoxy)imidazo [1,5-a]pyrazine] |  |  |  |  |  | ≥ 80% | ≥ 80% | ≥ 80%
CCSc1cc(C2(C#N)CC2)cnc1-c1ncc2c(OCC(F)(F)C(F)(F)F)cccn12 [Compound P53, 1-[5-ethylsulfanyl-6-[8-(2,2,3,3,3-penta-fluoropropxoy)imidazo [1,5-a]pyridin-3-yl]-3-pyridyl]cyclopropane-carbonitrile] |  |  |  |  |  | ≥ 80% |  | ≥ 80%
CCS(=O)(=O)c1ccc(Cl)nc1-c1ncc2c(OCC(F)(F)C(F)(F)F)cccn12 [Compound P30, 3-(6-chloro-3-ethylsulfonyl-2-pyridyl)-8-(2,2,3,3,3-pentafluoropropoxy)imi-dazo[1,5-a]pyridine] |  |  | ≥ 80% | ≥ 80% |  |  |  | 
CCS(=O)(=O)c1ccc(N(C)C(C)=O)nc1-c1ncc2c(OCC(F)(F)C(F)(F)F)cccn12 [Compound P37, N-[5-ethylsulfonyl-6-[8-(2,2,3,3,3-penta-fluoropropoxy)imidazo [1,5-a]pyridin-3-yl]-2-pyridyl]-N-methyl-acetamide] |  |  |  |  | ≥ 80% | ≥ 80% |  | ≥ 80%
CCS(=O)(=O)c1cc(C(C)(C)C#N)cnc1-c1ncc2c(OCC(F)(F)C(F)(F)F)nccn12 [Compound P16, 2-[5-ethylsulfonyl-6-[8-(2,2,3,3,3-penta-fluoropropoxy)imidazo [1,5-a]pyrazin-3-yl]-3-pyridyl]-2-methyl-propanenitrile] |  |  |  |  | ≥ 80% | ≥ 80% | ≥ 80% | ≥ 80%
CCS(=O)(=O)c1ccc(NC(=O)NC)nc1-c1ncc2c(OCC(F)(F)C(F)(F)F)nccn12 [Compound P9, 1-[5-ethylsulfonyl-6-[8-(2,2,3,3,3-penta-fluoropropoxy)imidazo [1,5-a]pyrazin-3-yl]-2-pyridyl]-3-methyl-urea] |  |  |  |  |  | ≥ 80% |  | ≥ 80%
CCS(=O)(=O)c1ccc(NC)nc1-c1ncc2c(OCC(F)(F)C(F)(F)F)cccn12 [Compound P31, 5-ethylsulfonyl-N-methyl-6-[8-(2,2,3,3,3-penta-fluoropropoxy)imidazo [1,5-a]pyridin-3-yl]pyri-din-2-amine] |  |  |  |  | ≥ 80% | ≥ 80% | ≥ 80% | ≥ 80%
CCSc1cccnc1-c1ncc2c(OCC(F)(F)C(F)(F)F)nccn12 [Compound P7, 3-(3-ethylsulfanyl-2-pyridyl)-8-(2,2,3,3,3-pentafluoropropoxy)imi-dazo[1,5-a]pyrazine] | ≥ 80% | ≥ 80% |  | ≥ 80% |  |  |  | 
CCSc1cc(N(C)C(C)=O)cnc1-c1ncc2c(OCC(F)(F)C(F)(F)F)cccn12 [Compound P41, N-[5-ethylsulfanyl-6-[8-(2,2,3,3,3-penta-fluoropropoxy)imidazo [1,5-a]pyridin-3-yl]-3-pyridyl]-N-methyl-acetamide] |  |  |  |  |  |  |  | ≥ 80%
CCS(=N)(=O)c1cc(OC(C)(C)C#N)cnc1-c1ncc2c(OCC(F)(F)C(F)(F)F)cccn12 (centres unmarked) [Compound P49, 2-[[5-(ethylsulfonimidoyl)-6-[8-(2,2,3,3,3-penta-fluoropropoxy)imidazo [1,5-a]pyridin-3-yl]-3-pyridyl]oxy]-2-methyl-propanenitrile] |  |  |  |  |  | ≥ 80% |  | ≥ 80%
